## O=C(O)[C@@H]1CSCN1
In 1,4-dioxane, 288.15 K
  solubility (mole fraction): 0.00035
In 1,4-dioxane, 293.15 K
  solubility (mole fraction): 0.000384
In 1,4-dioxane, 303.15 K
  solubility (mole fraction): 0.000477
In 1,4-dioxane, 313.15 K
  solubility (mole fraction): 0.000589
In 1,4-dioxane, 323.15 K
  solubility (mole fraction): 0.000708
In acetone, 283.15 K
  solubility (mole fraction): 0.00018
In acetone, 293.15 K
  solubility (mole fraction): 0.000298
In acetone, 303.15 K
  solubility (mole fraction): 0.000537
In acetone, 313.15 K
  solubility (mole fraction): 0.00135
In acetone, 323.15 K
  solubility (mole fraction): 0.00343
In acetonitrile, 283.15 K
  solubility (mole fraction): 2.2e-05
In acetonitrile, 293.15 K
  solubility (mole fraction): 3e-05
In acetonitrile, 303.15 K
  solubility (mole fraction): 4.8e-05
In acetonitrile, 313.15 K
  solubility (mole fraction): 6.8e-05
In acetonitrile, 323.15 K
  solubility (mole fraction): 9.1e-05
In dichloromethane, 283.15 K
  solubility (mole fraction): 1.5e-05
In dichloromethane, 288.15 K
  solubility (mole fraction): 5.1e-05
In dichloromethane, 293.15 K
  solubility (mole fraction): 0.000134
In dichloromethane, 298.15 K
  solubility (mole fraction): 0.000208
In dichloromethane, 303.15 K
  solubility (mole fraction): 0.000292
In ethanol, 283.15 K
  solubility (mole fraction): 9e-05
In ethanol, 293.15 K
  solubility (mole fraction): 0.000125
In ethanol, 303.15 K
  solubility (mole fraction): 0.00018
In ethanol, 313.15 K
  solubility (mole fraction): 0.000254
In ethanol, 323.15 K
  solubility (mole fraction): 0.000348
In ethyl acetate, 283.15 K
  solubility (mole fraction): 2.3e-05
In ethyl acetate, 293.15 K
  solubility (mole fraction): 7.2e-05
In ethyl acetate, 303.15 K
  solubility (mole fraction): 0.000158
In ethyl acetate, 313.15 K
  solubility (mole fraction): 0.000297
In ethyl acetate, 323.15 K
  solubility (mole fraction): 0.000471
In isopropanol, 283.15 K
  solubility (mole fraction): 3.7e-05
In isopropanol, 293.15 K
  solubility (mole fraction): 6.8e-05
In isopropanol, 303.15 K
  solubility (mole fraction): 9.8e-05
In isopropanol, 313.15 K
  solubility (mole fraction): 0.000127
In isopropanol, 323.15 K
  solubility (mole fraction): 0.00019
In methanol, 283.15 K
  solubility (mole fraction): 5.5e-05
In methanol, 293.15 K
  solubility (mole fraction): 7.4e-05
In methanol, 303.15 K
  solubility (mole fraction): 0.000112
In methanol, 313.15 K
  solubility (mole fraction): 0.000209
In methanol, 323.15 K
  solubility (mole fraction): 0.000315
In water, 283.15 K
  solubility (mole fraction): 0.00296
In water, 293.15 K
  solubility (mole fraction): 0.00383
In water, 303.15 K
  solubility (mole fraction): 0.00502
In water, 313.15 K
  solubility (mole fraction): 0.0062
In water, 323.15 K
  solubility (mole fraction): 0.00773
